For assay [1], the target named is T1, Muscarinic acetylcholine receptor M2 (Homo sapiens, UniProt P08172).
T1 sequence (P08172 whole entry): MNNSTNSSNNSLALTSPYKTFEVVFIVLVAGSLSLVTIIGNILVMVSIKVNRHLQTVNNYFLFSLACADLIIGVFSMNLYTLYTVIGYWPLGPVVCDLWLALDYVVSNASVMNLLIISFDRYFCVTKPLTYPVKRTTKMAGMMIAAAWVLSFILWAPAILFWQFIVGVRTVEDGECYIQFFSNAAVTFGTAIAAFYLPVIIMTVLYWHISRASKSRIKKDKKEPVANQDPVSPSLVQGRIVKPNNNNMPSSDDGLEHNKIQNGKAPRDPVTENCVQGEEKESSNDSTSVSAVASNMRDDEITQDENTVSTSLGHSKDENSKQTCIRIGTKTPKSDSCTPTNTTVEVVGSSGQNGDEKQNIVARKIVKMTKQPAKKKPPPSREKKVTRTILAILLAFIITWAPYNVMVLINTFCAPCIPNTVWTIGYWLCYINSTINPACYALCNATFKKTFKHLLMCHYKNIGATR

The target of assay [2] is D(1A) dopamine receptor (Homo sapiens, UniProt P21728).
Sequence of D(1A) dopamine receptor (P21728 whole entry): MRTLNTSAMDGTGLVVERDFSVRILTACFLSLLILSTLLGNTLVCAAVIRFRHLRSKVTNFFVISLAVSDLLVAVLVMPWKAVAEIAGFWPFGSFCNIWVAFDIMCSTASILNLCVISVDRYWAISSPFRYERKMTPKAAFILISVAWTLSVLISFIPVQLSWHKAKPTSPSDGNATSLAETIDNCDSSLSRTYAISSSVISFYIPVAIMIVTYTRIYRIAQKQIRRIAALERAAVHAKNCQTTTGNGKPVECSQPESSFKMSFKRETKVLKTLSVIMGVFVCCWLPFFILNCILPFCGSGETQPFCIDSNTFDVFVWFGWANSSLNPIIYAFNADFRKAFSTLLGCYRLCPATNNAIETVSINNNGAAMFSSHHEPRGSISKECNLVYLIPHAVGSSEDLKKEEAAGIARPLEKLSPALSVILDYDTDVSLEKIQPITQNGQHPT
For assay [3], the target named is D(3) dopamine receptor (Homo sapiens, UniProt P35462).
Sequence of D(3) dopamine receptor (P35462 whole entry): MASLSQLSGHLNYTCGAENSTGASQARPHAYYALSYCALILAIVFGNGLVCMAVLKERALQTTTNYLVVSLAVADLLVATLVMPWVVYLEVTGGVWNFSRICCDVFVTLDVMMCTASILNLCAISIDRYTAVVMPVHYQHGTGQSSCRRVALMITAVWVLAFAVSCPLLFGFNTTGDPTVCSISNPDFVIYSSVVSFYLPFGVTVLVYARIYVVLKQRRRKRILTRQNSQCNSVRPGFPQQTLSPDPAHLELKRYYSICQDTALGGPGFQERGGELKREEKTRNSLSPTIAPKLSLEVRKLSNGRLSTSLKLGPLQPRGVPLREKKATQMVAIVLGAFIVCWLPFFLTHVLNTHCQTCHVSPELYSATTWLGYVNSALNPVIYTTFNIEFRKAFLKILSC
For assay [4], the target named is T2, Adenosine receptor A3 (Homo sapiens, UniProt P0DMS8).
T2 sequence (P0DMS8 whole entry): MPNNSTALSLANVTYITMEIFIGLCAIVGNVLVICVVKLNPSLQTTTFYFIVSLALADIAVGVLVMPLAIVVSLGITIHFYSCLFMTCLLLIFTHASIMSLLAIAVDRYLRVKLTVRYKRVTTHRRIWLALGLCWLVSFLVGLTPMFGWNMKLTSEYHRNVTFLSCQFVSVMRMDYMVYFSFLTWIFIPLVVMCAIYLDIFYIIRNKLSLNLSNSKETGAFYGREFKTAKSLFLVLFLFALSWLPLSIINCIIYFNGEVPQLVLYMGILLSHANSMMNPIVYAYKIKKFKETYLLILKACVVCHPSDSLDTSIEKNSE

For assay [5], the target named is Cannabinoid receptor 1 (Homo sapiens, UniProt P21554). It counts as functional, cell-based.
Sequence of Cannabinoid receptor 1 (P21554 whole entry): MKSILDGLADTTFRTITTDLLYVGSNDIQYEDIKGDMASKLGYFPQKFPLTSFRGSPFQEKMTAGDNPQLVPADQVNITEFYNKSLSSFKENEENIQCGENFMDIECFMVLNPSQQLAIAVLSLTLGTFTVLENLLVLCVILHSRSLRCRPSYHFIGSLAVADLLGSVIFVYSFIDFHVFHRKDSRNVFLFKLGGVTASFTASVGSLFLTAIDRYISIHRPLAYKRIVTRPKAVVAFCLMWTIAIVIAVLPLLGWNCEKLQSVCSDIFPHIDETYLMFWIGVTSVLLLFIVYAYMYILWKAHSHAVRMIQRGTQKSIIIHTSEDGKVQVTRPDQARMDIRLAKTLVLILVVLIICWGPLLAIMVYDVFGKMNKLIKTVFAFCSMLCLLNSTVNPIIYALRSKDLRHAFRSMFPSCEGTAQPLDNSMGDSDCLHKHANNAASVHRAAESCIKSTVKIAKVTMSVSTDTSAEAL
The target of assay [6] is T3, Estrogen receptor (Homo sapiens, UniProt P03372).
T3 sequence (P03372 whole entry): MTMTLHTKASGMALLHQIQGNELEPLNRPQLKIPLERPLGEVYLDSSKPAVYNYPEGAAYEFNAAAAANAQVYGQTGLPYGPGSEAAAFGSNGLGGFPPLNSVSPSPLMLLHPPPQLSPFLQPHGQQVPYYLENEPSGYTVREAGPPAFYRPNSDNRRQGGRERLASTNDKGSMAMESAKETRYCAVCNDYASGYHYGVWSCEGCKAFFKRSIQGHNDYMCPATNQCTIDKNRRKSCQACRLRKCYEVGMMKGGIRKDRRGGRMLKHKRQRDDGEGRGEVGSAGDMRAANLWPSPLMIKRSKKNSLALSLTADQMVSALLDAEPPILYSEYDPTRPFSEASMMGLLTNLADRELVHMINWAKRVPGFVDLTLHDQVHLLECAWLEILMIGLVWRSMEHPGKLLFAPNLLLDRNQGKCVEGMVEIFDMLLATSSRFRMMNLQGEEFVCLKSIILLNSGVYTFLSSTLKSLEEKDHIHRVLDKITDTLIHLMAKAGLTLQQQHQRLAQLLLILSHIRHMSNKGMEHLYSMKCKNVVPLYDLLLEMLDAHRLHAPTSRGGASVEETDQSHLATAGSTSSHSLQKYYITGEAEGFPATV

Assay [7] concerns the target T4, Progesterone receptor (Homo sapiens, UniProt P06401).
T4 sequence (P06401 whole entry): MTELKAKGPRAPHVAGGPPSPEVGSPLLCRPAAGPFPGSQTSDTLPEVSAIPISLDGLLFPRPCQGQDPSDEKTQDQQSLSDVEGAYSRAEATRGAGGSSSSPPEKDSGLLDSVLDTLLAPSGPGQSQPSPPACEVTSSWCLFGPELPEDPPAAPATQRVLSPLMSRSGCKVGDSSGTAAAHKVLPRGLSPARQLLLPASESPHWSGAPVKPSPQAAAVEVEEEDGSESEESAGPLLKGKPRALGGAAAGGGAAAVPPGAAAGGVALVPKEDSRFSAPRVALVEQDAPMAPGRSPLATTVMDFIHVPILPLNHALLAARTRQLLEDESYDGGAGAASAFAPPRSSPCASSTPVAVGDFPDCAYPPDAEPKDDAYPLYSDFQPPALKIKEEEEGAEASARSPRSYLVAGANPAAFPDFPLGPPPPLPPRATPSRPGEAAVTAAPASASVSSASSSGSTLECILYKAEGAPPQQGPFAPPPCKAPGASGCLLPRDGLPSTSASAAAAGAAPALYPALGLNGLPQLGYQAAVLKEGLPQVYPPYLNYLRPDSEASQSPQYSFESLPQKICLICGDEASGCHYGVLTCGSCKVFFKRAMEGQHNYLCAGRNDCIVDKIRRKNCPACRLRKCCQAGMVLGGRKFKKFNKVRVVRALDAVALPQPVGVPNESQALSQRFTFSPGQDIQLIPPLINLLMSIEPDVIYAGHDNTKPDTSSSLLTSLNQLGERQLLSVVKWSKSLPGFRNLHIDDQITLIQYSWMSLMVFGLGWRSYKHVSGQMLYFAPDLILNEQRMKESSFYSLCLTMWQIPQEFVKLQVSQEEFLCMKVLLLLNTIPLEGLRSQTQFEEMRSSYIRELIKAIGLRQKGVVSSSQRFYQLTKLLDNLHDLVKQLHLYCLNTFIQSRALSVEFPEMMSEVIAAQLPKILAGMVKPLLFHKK
It counts as functional.

Assay [8] concerns the target T5, Neuropeptide Y receptor type 1 (Homo sapiens, UniProt P25929).
T5 sequence (P25929 whole entry): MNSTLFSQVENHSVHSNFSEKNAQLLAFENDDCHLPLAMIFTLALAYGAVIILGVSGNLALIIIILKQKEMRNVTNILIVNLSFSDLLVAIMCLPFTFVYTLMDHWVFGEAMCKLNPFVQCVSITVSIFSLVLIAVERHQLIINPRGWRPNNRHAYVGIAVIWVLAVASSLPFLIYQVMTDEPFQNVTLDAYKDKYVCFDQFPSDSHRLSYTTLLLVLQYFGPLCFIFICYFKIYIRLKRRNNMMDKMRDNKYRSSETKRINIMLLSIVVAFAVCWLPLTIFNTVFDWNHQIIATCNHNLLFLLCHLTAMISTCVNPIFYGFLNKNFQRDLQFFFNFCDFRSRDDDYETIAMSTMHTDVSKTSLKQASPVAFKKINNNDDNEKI

For assay [9], the target named is Glutamate receptor ionotropic, NMDA 1 (Rattus norvegicus, UniProt P35439).

SMILES strings stand for the structures.
Further: assay procedure not described here.

On to `O=C(OCC(O)CO)c1ccccc1Nc1ccnc2cc(Cl)ccc12` (configuration not stated) [GLAFENINE], for which the AC50 in assay [1] was 4.3 µM; in [2], > 30 µM; in assay [3] it was > 30 µM; in assay [4], 1.4 µM; in assay [5] it was > 30 µM; in [6] it was > 30 µM. The AC50 in [7] was > 30 µM.

For `CC(=O)N[C@@H]1[C@@H](O)[C@H](O)[C@@H](CO)O[C@H]1O` [N-ACETYLGLUCOSAMINE], the AC50 in [1], in [2], in assay [3], in [4] and in assay [6] was > 30 µM in each case.

With `O=C(CCNNC(=O)c1ccncc1)NCc1ccccc1` [NIALAMIDE], the AC50 in assay [1], in assay [2], in [3], in assay [4] and in assay [6] was > 30 µM in each case.

Consider `CC[C@H]1[C@@H](O)[C@@H]2[C@H](CC[C@]3(C)[C@@H]([C@H](C)CCC(=O)O)CC[C@@H]23)[C@@]2(C)CC[C@@H](O)C[C@@H]12` [OBETICHOLIC ACID], for which the AC50 in assay [8], in assay [1], in [2], in [3], in [4] and in [5] was > 30 µM in each case. Moreover, the AC50 in assay [6], in assay [9] and in assay [7] was > 30 µM in each case.

For `CC[N+]1(C)[C@@H]2CC(OC(=O)[C@H](CO)c3ccccc3)C[C@H]1[C@@H]1O[C@@H]12` (some centres not stated) [OXITROPIUM], the AC50 is 0.003 µM in [1]; > 30 µM in [2]; > 30 µM in assay [3]; > 30 µM in assay [4]; > 30 µM in assay [6].

Regarding `CC(C)(C)NC[C@H](O)COc1ccccc1C1CCCC1` [PENBUTOLOL], the concentration at half-maximal activity (AC50) in assay [1] is > 30 µM; in assay [2], 27.8 µM; in assay [3] it was 7.74 µM; in assay [4], > 30 µM; in assay [6] it was > 30 µM.

As to `CN(C)S(=O)(=O)c1ccc2c(c1)N(CCCN1CCC(CCO)CC1)c1ccccc1S2` [PIPOTIAZINE], the half-maximal activity concentration (AC50) is 1.72 µM in assay [1]; 0.0201 µM in [2]; 0.003 µM in assay [3]; > 30 µM in assay [4]; > 30 µM in assay [6].

As for `C=C[C@H]1C[N@@]2CC[C@H]1C[C@H]2[C@H](O)c1ccnc2ccc(OC)cc12` [QUININE], the AC50 in [1], in assay [2], in [3], in assay [4] and in [6] was > 30 µM each time.

For the molecule `CCC(=O)NCC[C@@H]1CCc2ccc3c(c21)CCO3` [RAMELTEON], the AC50 in assay [1], in assay [2], in assay [3], in assay [4] and in [6] was > 30 µM in each case.

Consider `CO[C@H]1C[C@@H]2CC[C@@H](C)[C@@](O)(O2)C(=O)C(=O)N2CCCC[C@H]2C(=O)O[C@H]([C@H](C)C[C@@H]2CC[C@@H](O)[C@H](OC)C2)CC(=O)[C@H](C)/C=C(\C)[C@@H](O)[C@@H](OC)C(=O)[C@H](C)C[C@H](C)/C=C/C=C/C=C/1C` [SIROLIMUS], for which the AC50 in assay [8] was > 30 µM; in [1], > 30 µM; in assay [2], > 30 µM; in assay [3], > 30 µM; in [4] it was 26.4 µM; in assay [5], > 30 µM. In addition, the values for the AC50 in assay [6] and in assay [9] were > 30 µM and > 10 µM, respectively.

Consider `Cc1cn([C@H]2C[C@H](N=[N+]=[N-])[C@@H](CO)O2)c(=O)[nH]c1=O` [ZIDOVUDINE], for which the AC50 in assay [8], in assay [1], in [2], in assay [3], in assay [4] and in assay [5] was > 30 µM in each case. The AC50 was > 30 µM in assay [6] and > 10 µM in assay [9].

For orientation: AC50 means the concentration giving half of the maximal activity seen. Low readings indicate activity at low concentration, high ones activity only at high concentration.
